The species named for assay [1] is Rattus norvegicus. Briefly: Effective concentration required to determined hallucinogen-like activity in LSD-trained rats. Format: functional.
For assay [2], the system named is Rattus norvegicus. The assay can be described thus: Percentage of animals tested that selected the training compound appropriate level at 0.5 umol/kg in LY-293284-trained rats. Format: functional.
Assay [3] has as its system Rattus norvegicus. Briefly: Percentage of animals failed to emit 50 responses within 5 min at 0.125 umol/kg in LY-293284-trained rats. It is filed as functional.
Assay [4] deals with Rattus norvegicus. The assay can be described thus: Percentage of animals failed to emit 50 responses within 5 min at 0.5 umol/kg in DOI-trained rats. Format: functional.
In assay [5] the test system is Rattus norvegicus. The assay can be described thus: Percentage of animals tested that selected the training compound appropriate level at 1 umol/kg in LY-293284-trained rats. Format: functional.
Assay [6] has as its system Rattus norvegicus. The assay can be described thus: Percentage of animals tested that selected the training compound appropriate level at 0.125 umol/kg in DOI-trained rats. Format: functional.
In assay [7] the test system is Rattus norvegicus. The assay can be described thus: Percentage of animals tested that selected the training compound appropriate level at 0.25 umol/kg in DOI-trained rats. It is filed as functional.
Assay [8] has as its system Rattus norvegicus. Briefly: Percentage of animals failed to emit 50 responses within 5 min at 0.5 umol/kg in LY-293284-trained rats. It is filed as functional.
The test system of assay [9] is Rattus norvegicus. Briefly: Percentage of animals tested that selected the training compound appropriate level at 0.125 umol/kg in LSD-trained rats. Format: functional.
Assay [10] concerns Rattus norvegicus. The assay can be described thus: Percentage of animals tested that selected the training compound appropriate level at 0.25 umol/kg in LY-293284-trained rats. It is filed as functional.
Assay [11] relates to Rattus norvegicus. Briefly: Percentage of animals failed to emit 50 responses within 5 min at 1 umol/kg in LSD-trained rats. Format: functional.
Assay [12] concerns Rattus norvegicus. Briefly: Percentage of animals tested that selected the training compound appropriate level at 0.25 umol/kg in LSD-trained rats. It is filed as functional.
The subject of assay [13] is Rattus norvegicus. The assay can be described thus: Percentage of animals failed to emit 50 responses within 5 min at 0.125 umol/kg in LSD-trained rats. Format: functional.
Assay [14] addresses 5-hydroxytryptamine receptor 2A (Rattus norvegicus, UniProt P14842). The assay can be described thus: Binding affinity towards rat 5-hydroxytryptamine 2A receptor was determined using [125I]- DOI as radioligand.
Assay [15] concerns Rattus norvegicus. The assay can be described thus: Percentage of animals failed to emit 50 responses within 5 min at 0.25 umol/kg in LSD-trained rats. Format: functional.
Assay [16] has as its system Rattus norvegicus. Briefly: Percentage of animals tested that selected the training compound appropriate level at 0.5 umol/kg in DOI-trained rats. Format: functional.
The test system of assay [17] is Rattus norvegicus. The assay can be described thus: Percentage of animals tested that selected the training compound appropriate level at 1 umol/kg in LSD-trained rats. Format: functional.
Assay [18] relates to Rattus norvegicus. The assay can be described thus: Percentage of animals failed to emit 50 responses within 5 min at 0.25 umol/kg in DOI-trained rats. It is filed as functional.
In assay [19] the test system is Rattus norvegicus. The assay can be described thus: Percentage of animals failed to emit 50 responses within 5 min at 1 umol/kg in LY-293284-trained rats. Format: functional.
The subject of assay [20] is Rattus norvegicus. Briefly: Percentage of animals failed to emit 50 responses within 5 min at 0.5 umol/kg in LSD-trained rats. Format: functional.
Assay [21] has as its target T1, 5-hydroxytryptamine receptor 2C (Rattus norvegicus, UniProt P08909).
T1 sequence (P08909 whole entry): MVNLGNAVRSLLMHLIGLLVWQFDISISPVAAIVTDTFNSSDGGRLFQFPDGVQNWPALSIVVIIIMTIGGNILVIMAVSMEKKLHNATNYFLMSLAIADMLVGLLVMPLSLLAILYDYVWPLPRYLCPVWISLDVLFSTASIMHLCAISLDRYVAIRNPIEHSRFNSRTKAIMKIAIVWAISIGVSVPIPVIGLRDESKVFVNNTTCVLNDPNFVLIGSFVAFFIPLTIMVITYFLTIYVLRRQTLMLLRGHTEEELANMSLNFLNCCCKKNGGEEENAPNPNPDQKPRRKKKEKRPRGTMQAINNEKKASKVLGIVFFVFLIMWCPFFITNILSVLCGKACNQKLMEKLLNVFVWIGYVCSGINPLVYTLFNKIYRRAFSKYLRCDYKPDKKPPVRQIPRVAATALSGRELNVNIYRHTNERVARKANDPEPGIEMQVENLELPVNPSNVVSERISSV
Briefly: Binding affinity towards rat 5-hydroxytryptamine 2C receptor was determined using [125I]- DOI as radioligand.

For assay [22], the system named is Rattus norvegicus. Briefly: Percentage of animals failed to emit 50 responses within 5 min at 0.063 umol/kg in LY-293284-trained rats. It is filed as functional.
For assay [23], the system named is Rattus norvegicus. The assay can be described thus: Percentage of animals tested that selected the training compound appropriate level at 0.063 umol/kg in LY-293284-trained rats. It is filed as functional.
In assay [24] the test system is Rattus norvegicus. The assay can be described thus: Percentage of animals failed to emit 50 responses within 5 min at 0.25 umol/kg in LY-293284-trained rats. Format: functional.
Assay [25] deals with Rattus norvegicus. Briefly: Percentage of animals tested that selected the training compound appropriate level at 0.5 umol/kg in LSD-trained rats. It is filed as functional.
Assay [26] relates to Rattus norvegicus. Briefly: Percentage of animals tested that selected the training compound appropriate level at 0.125 umol/kg in LY-293284-trained rats. Format: functional.
Assay [27] has as its target T2, 5-hydroxytryptamine receptor 1A (Homo sapiens, UniProt P08908).
T2 sequence (P08908 whole entry): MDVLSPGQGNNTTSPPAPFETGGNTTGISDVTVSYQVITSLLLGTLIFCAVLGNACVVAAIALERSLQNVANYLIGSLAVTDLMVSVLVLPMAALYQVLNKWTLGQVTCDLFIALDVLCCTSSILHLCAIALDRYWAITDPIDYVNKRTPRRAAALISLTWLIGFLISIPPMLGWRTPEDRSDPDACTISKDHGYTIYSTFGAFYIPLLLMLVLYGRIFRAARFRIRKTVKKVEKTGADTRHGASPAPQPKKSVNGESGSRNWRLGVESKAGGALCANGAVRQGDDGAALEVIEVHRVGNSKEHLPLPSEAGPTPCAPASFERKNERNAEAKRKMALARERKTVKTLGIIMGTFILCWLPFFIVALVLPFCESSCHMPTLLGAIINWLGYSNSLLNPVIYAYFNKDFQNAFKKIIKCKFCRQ
Briefly: Binding affinity towards human 5-hydroxytryptamine 1A receptor was determined using [3H]8-OH-DPAT-as radioligand.

The subject of assay [28] is Rattus norvegicus. Briefly: Percentage of animals failed to emit 50 responses within 5 min at 0.125 umol/kg in DOI-trained rats. Format: functional.

SMILES strings stand for the structures. pKi: −log10 of the molar value.

A word on the ED50: it is the dose that gives a 50% effect, or the effect in half of the subjects. A higher ED50 goes with weaker potency. As a reminder, the pKi is the Ki on a negative log10 scale, so that one unit is a factor of ten.

Sequence of 5-hydroxytryptamine receptor 2A (P14842 whole entry): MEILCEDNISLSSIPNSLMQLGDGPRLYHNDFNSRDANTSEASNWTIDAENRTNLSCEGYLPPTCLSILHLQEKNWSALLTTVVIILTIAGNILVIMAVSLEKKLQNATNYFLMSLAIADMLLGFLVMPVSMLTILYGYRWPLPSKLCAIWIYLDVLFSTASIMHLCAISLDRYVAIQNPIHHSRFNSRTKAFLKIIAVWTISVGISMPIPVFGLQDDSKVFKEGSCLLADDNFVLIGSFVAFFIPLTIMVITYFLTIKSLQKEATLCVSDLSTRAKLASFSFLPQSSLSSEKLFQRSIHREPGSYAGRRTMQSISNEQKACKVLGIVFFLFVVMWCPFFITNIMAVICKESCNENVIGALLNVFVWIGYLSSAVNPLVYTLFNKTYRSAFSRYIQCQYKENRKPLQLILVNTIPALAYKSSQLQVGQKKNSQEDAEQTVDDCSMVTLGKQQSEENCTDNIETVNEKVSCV

Consider `COc1cc(CC(C)N)c(OC)cc1I` (stereo unspecified), for which the 50% effect level in the assay filed under Rattus norvegicus [1] (ED50) was put at a dose of 0.29 µmol/kg.
For `CCN(CC)C(=O)[C@@H]1C=C2c3cccc4[nH]cc(c34)C[C@H]2N(C)C1` [LYSERGIDE], in the assay listed under Rattus norvegicus [1], the ED50 amounted to 0.026 µmol/kg.
Regarding `COc1ccc2[nH]cc(CCN3CCCC3)c2c1F`, the SDL in the assay with Rattus norvegicus [2] was 100%; in the assay on Rattus norvegicus [5] it was 100%; with Rattus norvegicus [6], 0%; in the assay with Rattus norvegicus [7], 29%; in the assay on Rattus norvegicus [9], 11%; with Rattus norvegicus [10], 100%. The SDL in the assay on Rattus norvegicus [12] is recorded as 57%; with Rattus norvegicus [16] it was 50%; with Rattus norvegicus [17] it was 67%; in the assay with Rattus norvegicus [23], 25%; in the assay on Rattus norvegicus [25], 75%; in the assay on Rattus norvegicus [26] it was 66.6%. The D in the assay with Rattus norvegicus [3] is recorded as 10%; with Rattus norvegicus [4] it was 50%; in the assay with Rattus norvegicus [8], 66.6%; in the assay with Rattus norvegicus [11], 78%; in the assay on Rattus norvegicus [13], 10%; with Rattus norvegicus [15] it was 53%. Further, the D in the assay with Rattus norvegicus [18] was 30%; in the assay with Rattus norvegicus [19] it was 90%; with Rattus norvegicus [20] it was 60%; with Rattus norvegicus [22] it was 0%; in the assay on Rattus norvegicus [24] it was 12.5%; in the assay on Rattus norvegicus [28] it was 22%. For the same compound, the values for the pKi in assay [14], in assay [21] and in assay [27] were 6.89, 6.85 and 9.92, respectively.
Compound `CCCN(CCC)C1CCc2cccc(O)c2C1` (stereo unspecified) [8-OH-DPAT] displayed an ED50 in the assay listed under Rattus norvegicus [1] of 0.099 µmol/kg.
In the case of `COc1ccc2[nH]cc(CCN(C)C)c2c1F`, the pKi in [27] is 9.64.

The values above are taken from ChEMBL document CHEMBL1134432 (Bioorg Med Chem Lett, 2001).
